Test results from patent publication US20240238423A9, “TETRAHYDROISOQUINOLINE HETEROBIFUNCTIONAL BCL-XL DEGRADERS” (Treeline Biosciences, Inc., priority 2022, published 2024).
Like-named read-outs stand apart in the source and are kept apart here.

Target: T1, Human BCL-XL protein (N-terminal HiBiT tagged BCL-XL in HT1080 cells) (Homo sapiens, UniProt Q07817)
T1 construct: expressed in transfected cells; host or cells: HT-1080 (ATCC CCL-121), stably transduced with lentivirus pLV-UBC-N-HiBiT-BCL-XL-PGK-puro and selected with puromycin
Assay: HiBiT based degradation assay
Assay type: cell-based
Details: HT1080 cells expressing HiBiT-BCL-XL; for DC50: BCL-XL degradation
Method in brief: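 HT1080 cells stably transduced by lentivirus with N-terminally HiBiT-tagged human BCL-XL and kept under 1 μg/mL puromycin selection were seeded at three thousand cells per well in 40 μL RPMI 1640 into 384-well plates pre-spotted with compounds across a concentration range. Luminescence was read on a PHERAstar FSX, normalized to DMSO, and fitted with a four-parameter logistic model.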

[1] = BCL-XL degradation normalized with DMSO control, 24 h

T1 sequence (Q07817 whole entry): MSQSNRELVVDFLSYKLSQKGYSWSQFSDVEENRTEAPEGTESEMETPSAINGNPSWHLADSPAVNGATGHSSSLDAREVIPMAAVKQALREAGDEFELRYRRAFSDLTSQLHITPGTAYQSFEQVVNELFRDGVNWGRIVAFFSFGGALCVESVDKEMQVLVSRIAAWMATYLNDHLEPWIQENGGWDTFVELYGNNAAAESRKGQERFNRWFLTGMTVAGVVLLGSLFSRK

Structure (SMILES) | Ymin (6 h) (BCL-XL degradation normalized with DMSO control, 6 h) | Ymin (24 h) [1] | DC50 (6 h, read-out: EC50 (6 h)) [nM] | DC50 (24 h, read-out: EC50 (24 h)) [nM]
Cc1cc(OCCCN2C[C@@H](C)N(CC(=O)N3CCN(c4cccc5c(C6CCC(=O)NC6=O)nn(C)c45)CC3)[C@@H](C)C2)ccc1-c1ccc(N2CCc3cccc(C(=O)Nc4nc5ccccc5s4)c3C2)nc1C(=O)O (stereo partly drawn) [Compound 183a, 6-[8-(1,3-benzothiazol-2-ylcarbamoyl)-3,4-dihydro-1H-isoquinolin-2-yl]-3-[4-[3-[(3S,5R)-4-[2-[4-[3-(2,6-dioxo-3-piperidyl)-1-methyl-indazol-7-yl]piperazin-1-yl]-2-oxo-ethyl]-3,5-dimethyl-piperazin-1-yl]propoxy]-2-methyl-phenyl]pyridine-2-carboxylic acid] | B (50% ≤ Ymin < 70%) | A (Ymin < 50%) | < 100 | < 100
Cc1c(Oc2ccc(CCN3CCN(c4cccc5c(C6CCC(=O)NC6=O)nn(C)c45)CC3)cc2)cccc1-c1ccc(N2CCc3cccc(C(=O)Nc4nc5ccccc5s4)c3C2)nc1C(=O)O (stereo not shown) [Compound 241, 6-[8-(1,3-benzothiazol-2-ylcarbamoyl)-3,4-dihydro-1H-isoquinolin-2-yl]-3-[3-[4-[2-[4-[3-(2,6-dioxo-3-piperidyl)-1-methyl-indazol-7-yl]piperazin-1-yl]ethyl]phenoxy]-2-methyl-phenyl]pyridine-2-carboxylic acid] | – | B (50% ≤ Ymin < 70%) | – | < 100
Cc1c(OCCCC2CCN([C@@H](C)C(=O)Nc3cccc4c(C5CCC(=O)NC5=O)nn(C)c34)CC2)cccc1-c1ccc(N2CCc3cccc(C(=O)Nc4nc5ccccc5s4)c3C2)nc1C(=O)O (stereo partly drawn) [Compound 216a, 6-(8-(benzo[d]thiazol-2-ylcarbamoyl)-3,4-dihydroisoquinolin-2(1H)-yl)-3-(3-(3-(1-((2S)-1-((3-(2,6-dioxopiperidin-3-yl)-1-methyl-1H-indazol-7-yl)amino)-1-oxopropan-2-yl)piperidin-4-yl)propoxy)-2-methylphenyl)picolinic acid] | – | B (50% ≤ Ymin < 70%) | – | < 100
Cc1c(OCCCC2CCN(CCN3CCC(c4cccc5c(C6CCC(=O)NC6=O)nn(C)c45)CC3)CC2)cccc1-c1ccc(N2CCc3cccc(C(=O)Nc4nc5ccccc5s4)c3C2)nc1C(=O)O (stereo not shown) [Compound 256, 6-[8-(1,3-benzothiazol-2-ylcarbamoyl)-3,4-dihydro-1H-isoquinolin-2-yl]-3-[3-[3-[1-[2-[4-[3-(2,6-dioxo-3-piperidyl)-1-methyl-indazol-7-yl]-1-piperidyl]ethyl]-4-piperidyl]propoxy]-2-methyl-phenyl]pyridine-2-carboxylic acid] | – | A (Ymin < 50%) | – | < 100

The next lines start with the values.

Ymin (6 h) (BCL-XL degradation normalized with DMSO control, 6 h) | Ymin (24 h) [1] | DC50 (6 h, read-out: EC50 (6 h)) [nM] | DC50 (24 h, read-out: EC50 (24 h)) [nM] | Structure (SMILES)
– | A (Ymin < 50%) | – | < 100 | Cc1c(OC[C@H]2CCC3(CCN(CC(=O)Nc4ccc5c(C6CCC(=O)NC6=O)nn(C)c5c4)CC3)C2)cccc1-c1ccc(N2CCc3cccc(C(=O)Nc4nc5ccccc5s4)c3C2)nc1C(=O)O (single isomer, unassigned) [Compound 262a]
– | A (Ymin < 50%) | – | < 100 | Cc1c(O[C@H]2CC[C@H](CCCCN3CCN(c4ccc5c(C6CCC(=O)NC6=O)nn(C)c5c4)C[C@H]3C)CC2)cccc1-c1ccc(N2CCc3cccc(C(=O)Nc4nc5ccccc5s4)c3C2)nc1C(=O)O (stereo partly drawn) [Compound 297a, 6-(8-(benzo[d]thiazol-2-ylcarbamoyl)-3,4-dihydroisoquinolin-2(1H)-yl)-3-(3-(((1s,4r)-4-(4-((2R)-4-(3-(2,6-dioxopiperidin-3-yl)-1-methyl-1H-indazol-6-yl)-2-methylpiperazin-1-yl)butyl)cyclohexyl)oxy)-2-methylphenyl)picolinic acid]
– | A (Ymin < 50%) | – | < 100 | Cc1c(OCCCC2CCN(CC3CN(c4ccc5c(C6CCC(=O)NC6=O)nn(C)c5c4)C3)CC2)cccc1-c1ccc(N2CCc3cccc(C(=O)Nc4nc5ccccc5s4)c3C2)nc1C(=O)O (stereo not shown) [Compound 312, 6-(8-(benzo[d]thiazol-2-ylcarbamoyl)-3,4-dihydroisoquinolin-2(1H)-yl)-3-(3-(3-(1-((1-(3-(2,6-dioxopiperidin-3-yl)-1-methyl-1H-indazol-6-yl)azetidin-3-yl)methyl)piperidin-4-yl)propoxy)-2-methylphenyl)picolinic acid]
